Patent US20040037806A1, “Aldosterone blocker therapy to prevent or treat inflammation-related disorders” (Pharmacia Corporation, priority 2002, published 2004)
“Also recorded” adds a separate entry of the source.

Assays:
[1] = Assay C: aldosterone infusion study, radiotelemetrized arterial blood pressure; assay type: in vivo, rat; settings: 30-day protocol; uninephrectomized Sprague-Dawley rats, aldosterone + salt alone or with eplerenone 100 mg/kg/day
Procedure: The procedure of Assay B was expanded upon in a further study. […] Myocardial tissue from animals in each treatment group was examined after 7, 14, or 30 days of treatment. […] Lesions were preceded by the expression and progressive upregulation of proinflammatory molecules.
Male Sprague-Dawley rats, weighing 230 to 250 g, (Harlan Sprague-Dawley Industries, Indianapolis, Ind.) were housed in a room 12-hours light/12-hours dark daily cycle at an ambient temperature of 22±1° C. (n=96). Animals were allowed one week to adjust after arrival and had free access to TEKLAD 22/5 rodent diet (Harlan TEKLAD, Madison, Wis.) and tap water until the initiation of the experiment.
(§1) Potassium chloride supplementation was added to the saline solution in order to prevent the potential hypokalemia associated with aldosterone excess.
(§2) Treatment At the time of the surgery, an Alzet 2002 osmotic minipump (Alza Corp., Palo Alto, Calif.) containing either vehicle (9% ethanol/87% propylene glycol/4% dH2O) or 1.0 mg/mL d-aldosterone (Sigma Chemical, St. Louis, Mo.) was inserted subcutaneously at the nape of the neck. […]
Animals to be sacrificed after 7 or 14 days of treatment were uninephrectomized and implanted with an Alzet minipump. […] Animals were monitored daily for signs of distress and infection at the surgical site. […]
Radiotelemetrized arterial blood pressure was calculated with the […]

[2] = test system: Vascular Cell Adhesion Molecule-1 (VCAM-1); assay: Assay C: VCAM-1 mRNA, TaqMan; assay type: in vivo, rat; settings: aldosterone+salt alone or with eplerenone 100 mg/kg/day; increase at day 30 did not reach statistical significance
Procedure: The procedure of Assay B was expanded upon in a further study. […] Myocardial tissue from animals in each treatment group was examined after 7, 14, or 30 days of treatment.
as §1
as §2, with “neck. Aldosterone was administered at a dose of 0.75 µg/hour.” for “neck.”
The fluorogenic 5′-nuclease assay (TaqMan PCR) using Applied Biosystems' 7700 Sequence Detection System (Applied Biosystems, Foster City, Calif.) allowed for real time detection/quantitation of a specific gene by monitoring the increase in fluorescence of a gene-specific, dye-labeled oligonucleotide probe. […] When the probe was annealed to the target gene, fluorescence of 6FAM was prevented by the close proximity of TAMRA. The exonuclease activity of Taq polymerase released the dyes from the oligonucleotide probe by displacing the probe from the target sequence resulting in fluorescence excitation in direct proportion to the amount of target message present. […]

## COC(=O)[C@@H]1CC2=CC(=O)CC[C@]2(C)[C@@]23O[C@@H]2C[C@@]2(C)[C@@H](CC[C@@]24CCC(=O)O4)[C@H]13 [eplerenone]
[1]
  Systolic blood pressure (radiotelemetry): significantly reduced at days 8-30; also recorded: remained elevated compared to vehicle+salt controls
[2]
  VCAM-1 gene expression in myocardium: significantly reduced; also recorded: inhibition of early time-course expression of myocardial ICAM-1 and VCAM-1

## C[C@]12CCC(=O)C=C1CC[C@@H]1[C@@H]2[C@@H](O)C[C@]2(C=O)[C@@H](C(=O)CO)CC[C@@H]12 [aldosterone]
[1]
  Systolic blood pressure (radiotelemetry): induced severe hypertension; also recorded: induced a progressive increase in blood pressure with time
[2]
  VCAM-1 gene expression in myocardium: increased two-fold at day 30
